These are literature values, as cited in US8933122B2, “Use of cationic surfactants as sporicidal agents” (Laboratorios Miret, S.A., priority 2008, dated 2015).

This data set has as its system Clostridium perfringens ATCC 77454. As to conditions: Gram + Bacteria; cited from earlier work.

SMILES strings stand for the structures.

In the case of `CCCCCCCCCCCC(=O)N[C@@H](CCCN=C(N)N)C(=O)OCC.Cl` [LAE, ethyl ester of the lauramide of the arginine monohydrochloride], the M.I.C. was 16 ppm.
